This test relates to primary rat mixed cortical cells. The experiment in a line: In vitro myelination assay (MBP positive myelin strands, fold myelin pixels above background). In kind it is cell-based. The settings on record: Rattus norvegicus; for fold induction at 1 µM: 1.0 μM compound; for fold induction at 10 µM: 10.0 μM compound. In short, it runs like this: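 P1 rat cortical cells (neurons, OPCs, oligodendrocytes, astrocytes, microglia) were cultured 14 days at 37 °C with compound, with half-medium changes containing 1× compound on days 6 and 10. Fixed cells were immunostained for MBP and imaged at 10×. Total MBP myelin pixels per well were expressed as fold above no-compound baseline at 1.0 μM and 10.0 μM.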

[1] abbreviates: relative to baseline of no added compound, read-out: Fold myelin pixels above background.
The mark [2] stands for this setting: relative to baseline of no added compound, read-out: Fold myelin pixels above background, 1.0 μM.
Where [3] appears, read: relative to baseline of no added compound, read-out: Fold myelin pixels above background, 10.0 μM.
The mark [4] stands for this setting: read-out: Fold myelin pixels above background relative to baseline of no added compound.

Where two headings read alike, the source gives them in different places.

`Cc1cc(Nc2ncn(-c3ccc(C)c(Cl)c3)n2)cc(N2CCN(C3COC3)CC2)c1` [Compound 767, 1-(3-chloro-4-methyl-phenyl)-N-[3-methyl-5-[4-(oxetan-3-yl)piperazin-1-yl]phenyl]-1,2,4-triazol-3-amine]: under setting [1], the fold induction at 1 µM fell in the range of 1 to 10 and the fold induction at 10 µM was 10 to 100.

For the compound `CC(=O)N1CCCC(c2cc(C)cc(Nc3ncn(-c4ccccc4)n3)c2)C1` (stereo not shown) [Compound 117, 1-[3-[3-methyl-5-[(1-phenyl-1,2,4-triazol-3-yl)amino]phenyl]-1-piperidyl]ethanone], under setting [2], the fold induction at 1 µM lay within 1000 to 10000. Further, the fold induction at 10 µM under setting [3] is at most 1.

Regarding `Cc1cc(Nc2ncn(-c3cc(F)cc(F)c3)n2)cc(N2CCN(C3COC3)CC2=O)c1` [Compound 67, 1-[3-[[1-(3,5-difluorophenyl)-1,2,4-triazol-3-yl]amino]-5-methyl-phenyl]-4-(oxetan-3-yl)piperazin-2-one], the fold induction at 1 µM under setting [2] lay in the range of 1 to 10. Besides, the fold induction at 10 µM under setting [3] was in the range of 10 to 100.

Turning to `Cc1cc(Nc2ncn(-c3cc(F)cc(F)c3)n2)cc(NC2CCN(C3CCOC3)CC2)c1` (stereo not shown) [Compound 1064, N3-[1-(3,5-difluorophenyl)-1,2,4-triazol-3-yl]-5-methyl-N1-(1-tetrahydrofuran-3-yl-4-piperidyl)benzene-1,3-diamine], under setting [4], the fold induction at 1 µM lay in the range of 10 to 100 and the fold induction at 10 µM is at most 1.

For the compound `COCCC1CCN(c2cc(C)cc(Nc3ncn(-c4cc(F)cc(F)c4)n3)n2)CC1` [Compound 855, N-[1-(3,5-difluorophenyl)-1,2,4-triazol-3-yl]-6-[4-(2-methoxyethyl)-1-piperidyl]4-methyl-pyridin-2-amine], under setting [4], the fold induction at 1 µM was 1 to 10 and the fold induction at 10 µM was in the range of 1 to 10.

As for `Cc1cc(Nc2ncn(-c3cccc(Cl)c3)n2)cc(N2CCN(C3COC3)CC2)c1` [Compound 397, 1-(3-chlorophenyl)-N-[3-methyl-5-[4-(oxetan-3-yl)piperazin-1-yl]phenyl]-1,2,4-triazol-3-amine], under setting [1], the fold induction at 1 µM lay in the range of 1000 to 10000 and the fold induction at 10 µM fell in the range of 100 to 1000.

As for `Cc1cc(Nc2ncn(-c3cc(F)cc(F)c3)n2)nc(N2CCN([C@H]3CCOC3)CC2)c1` (single isomer, unassigned) [Compound 673], under setting [1], the fold induction at 1 µM fell in the range of 10 to 100 and the fold induction at 10 µM lay in the range of 100 to 1000.

As for `CN1CCCN(c2cc(F)cc(Nc3ncn(-c4cccc(F)c4)n3)c2)CC1` [Compound 98, N-[3-fluoro-5-(4-methyl-1,4-diazepan-1-yl)phenyl]-1-(3-fluorophenyl)-1,2,4-triazol-3-amine], under setting [2], the fold induction at 1 µM is 10 to 100. Further, the fold induction at 10 µM under setting [3] was at most 1.

As for `Cc1c(Nc2ncn(-c3ccccn3)n2)cc(N2CCN(C3COC3)CC2)cc1OC(C)C` [Compound 862, N-[3-isopropoxy-2-methyl-5-[4-(oxetan-3-yl)piperazin-1-yl]phenyl]-1-(2-pyridyl)-1,2,4-triazol-3-amine], under setting [4], the fold induction at 1 µM was in the range of 1 to 10 and the fold induction at 10 µM fell in the range of 10 to 100.

In the case of `CCOC(=O)C1CCN(c2cc(C)cc(Nc3ncn(-c4cc(F)cc(F)c4)n3)n2)CC1` [Compound 565, ethyl 1-[6-[[1-(3,5-difluorophenyl)-1,2,4-triazol-3-yl]amino]-4-methyl-2-pyridyl]piperidine-4-carboxylate], under setting [1], the fold induction at 1 µM is at most 1 and the fold induction at 10 µM was at most 1.

As to `Cc1cc(Nc2ncn(-c3ccnc(O)c3)n2)cc(N2CCOCC2)c1` [Compound 155, 4-[3-(3-methyl-5-morpholino-anilino)-1,2,4-triazol-1-yl]pyridin-2-ol], under setting [2], the fold induction at 1 µM was 100 to 1000. Further, the fold induction at 10 µM under setting [3] was in the range of 100 to 1000.

As for `CCc1cc(Nc2ncn(-c3ccnc(C)n3)n2)cc(N2CCN(C3COC3)CC2)c1` [Compound 91, N-[3-ethyl-5-[4-(oxetan-3-yl)piperazin-1-yl]phenyl]-1-(2-methylpyrimidin-4-yl)-1,2,4-triazol-3-amine], the fold induction at 1 µM under setting [2] is at most 1. The fold induction at 10 µM under setting [3] fell in the range of 100 to 1000.

Turning to `COCC1CCN(c2cc(C(F)F)cc(Nc3ncn(-c4cccc(C(F)(F)F)c4)n3)n2)CC1` [Compound 795, 4-(difluoromethyl)-6-[4-(methoxymethyl)-1-piperidyl]-N-[1-[3-(trifluoromethyl)phenyl]-1,2,4-triazol-3-yl]pyridin-2-amine], under setting [4], the fold induction at 1 µM was in the range of 1 to 10 and the fold induction at 10 µM was 1 to 10.

With `Cc1cc(Nc2ncn(-c3cc(F)cc(F)c3)n2)cc(NC2CCCN(CCF)C2)c1` (stereo not shown) [Compound 873, N3-[1-(3,5-difluorophenyl)-1,2,4-triazol-3-yl]-N1-[1-(2-fluoroethyl)-3-piperidyl]-5-methyl-benzene-1,3-diamine], under setting [4], the fold induction at 1 µM was 1 to 10 and the fold induction at 10 µM is at most 1.

`Cc1cc(Nc2ncn(-c3cc(F)cc(F)c3)n2)cc(N2CC(C)(O)C2)c1` [Compound 551, 1-[3-[[1-(3,5-difluorophenyl)-1,2,4-triazol-3-yl]amino]-5-methyl-phenyl]-3-methyl-azetidin-3-ol]: under setting [1], the fold induction at 1 µM fell in the range of 100 to 1000 and the fold induction at 10 µM fell in the range of 10 to 100.

On to `Cc1cc(Nc2ncn(-c3cc(F)cc(F)c3)n2)nc(N2CC(C#N)C2)c1` [Compound 821, 1-[6-[[1-(3,5-difluorophenyl)-1,2,4-triazol-3-yl]amino]-4-methyl-2-pyridyl]azetidine-3-carbonitrile], for which, under setting [4], the fold induction at 1 µM was at most 1 and the fold induction at 10 µM was in the range of 10 to 100.

`Cc1cc(Nc2ncn(-c3cccc(C(F)F)c3)n2)nc(N2CCN(C3COC3)CC2)c1` [Compound 848, N-[1-[3-(difluoromethyl)phenyl]-1,2,4-triazol-3-yl]-4-methyl-6-[4-(oxetan-3-yl)piperazin-1-yl]pyridin-2-amine]: under setting [4], the fold induction at 1 µM lay in the range of 10 to 100 and the fold induction at 10 µM was 10 to 100.

`Cc1cc(Nc2ncn(-c3cc(F)cc(F)c3)n2)nc(N2CC3(CCOC3)C2)c1` [Compound 570, N-[1-(3,5-difluorophenyl)-1,2,4-triazol-3-yl]-4-methyl-6-(7-oxa-2-azaspiro[3.4]octan-2-yl)pyridin-2-amine]: under setting [1], the fold induction at 1 µM was at most 1 and the fold induction at 10 µM is 1 to 10.

Take `Cc1cc(Nc2ncn(-c3ccccc3)n2)cc(C2CCCNC2)c1` (stereo not shown) [Compound 316, N-[3-methyl-5-(3-piperidyl)phenyl]-1-phenyl-1,2,4-triazol-3-amine]: under setting [2], the fold induction at 1 µM lay in the range of 100 to 1000. The fold induction at 10 µM under setting [3] is at most 1.

For `OC1(c2cc(F)cc(Nc3ncn(-c4cc(F)cc(F)c4)n3)c2)COC1` [Compound 775, 3-[3-[[1-(3,5-difluorophenyl)-1,2,4-triazol-3-yl]amino]-5-fluoro-phenyl]oxetan-3-ol], under setting [1], the fold induction at 1 µM lay within 1 to 10 and the fold induction at 10 µM was 10 to 100.

In the case of `COCCN1CCN(c2cc(C)cc(Nc3ncn(-c4ccccc4)n3)c2)CC1` [Compound 253, N-[3-[4-(2-methoxyethyl)piperazin-1-yl]-5-methyl-phenyl]-1-phenyl-1,2,4-triazol-3-amine], under setting [2], the fold induction at 1 µM was in the range of 1000 to 10000. Also, the fold induction at 10 µM under setting [3] is 10 to 100.

On to `Cc1cc(Nc2ncn(-c3cc(F)cc(F)c3)n2)cc(O[C@@H]2CCCN(C3COC3)C2)c1` (single isomer, unassigned) [Compound 748], for which, under setting [1], the fold induction at 1 µM was in the range of 10 to 100 and the fold induction at 10 µM is at most 1.

In the case of `Fc1cc(Nc2ncn(-c3ccccc3F)n2)cc(N2CCOCC2)c1` [Compound 49, N-(3-fluoro-5-morpholino-phenyl)-1-(2-fluorophenyl)-1,2,4-triazol-3-amine], the fold induction at 1 µM under setting [2] is at most 1. The fold induction at 10 µM under setting [3] is 10 to 100.

In the case of `Fc1ccc(-n2cnc(Nc3cc(C4CC4)nc(N4CCOCC4)c3)n2)cc1F` [Compound 88, 2-cyclopropyl-N-[1-(3,4-difluorophenyl)-1,2,4-triazol-3-yl]-6-morpholino-pyridin-4-amine], the fold induction at 1 µM under setting [2] was 1000 to 10000. The fold induction at 10 µM under setting [3] lay in the range of 1000 to 10000.

As to `CCC1COC(C)CN1CCNc1cc(C)cc(Nc2ncn(-c3cc(F)cc(F)c3)n2)c1` (stereo not shown) [Compound 974, N3-[1-(3,5-difluorophenyl)-1,2,4-triazol-3-yl]-N1-[2-(5-ethyl-2-methyl-morpholin-4-yl)ethyl]-5-methyl-benzene-1,3-diamine], under setting [4], the fold induction at 1 µM lay in the range of 10 to 100 and the fold induction at 10 µM was at most 1.

Regarding `Cc1cc(Nc2ncn(-c3cc(F)cc(NCCO)c3)n2)cc(N2CC(F)C2)c1` [Compound 852, 2-[3-fluoro-5-[3-[3-(3-fluoroazetidin-1-yl)-5-methyl-anilino]-1,2,4-triazol-1-yl]anilino]ethanol], under setting [4], the fold induction at 1 µM lay within 1 to 10 and the fold induction at 10 µM was at most 1.

With `Cc1cc(Nc2ncn(-c3cccnc3)n2)cc(N2CCN(C3COC3)CC2)c1` [Compound 275, N-[3-methyl-5-[4-(oxetan-3-yl)piperazin-1-yl]phenyl]-1-(3-pyridyl)-1,2,4-triazol-3-amine], under setting [2], the fold induction at 1 µM lay within 10 to 100. Moreover, under setting [3], the fold induction at 10 µM lay in the range of 100 to 1000.

Take `Cc1cc(Nc2ncn(-c3cc(F)cc(F)c3)n2)cc(N2C3CCC2COC3)c1` [Compound 722, 1-(3,5-difluorophenyl)-N-[3-methyl-5-(3-oxa-8-azabicyclo[3.2.1]octan-8-yl)phenyl]-1,2,4-triazol-3-amine]: under setting [1], the fold induction at 1 µM lay within 10 to 100 and the fold induction at 10 µM lay within 10 to 100.

On to `Cc1cc(Nc2ncn(-c3cc(F)cc(OC(C)C)c3)n2)cc(N2CCN(C)CC2)c1` [Compound 205, 1-(3-fluoro-5-isopropoxy-phenyl)-N-[3-methyl-5-(4-methylpiperazin-1-yl)phenyl]-1,2,4-triazol-3-amine], for which the fold induction at 1 µM under setting [2] fell in the range of 100 to 1000. The fold induction at 10 µM under setting [3] was at most 1.
